Key:
Rat CYP11B2 = molecular target: T1, Rat CYP11B2 (Rattus norvegicus, UniProt P30099); assay: In vitro rat CYP11B2 assay; format: biochemical; conditions: V79-4 cell homogenate, 11-deoxycorticosterone to aldosterone, SPA
T1 construct: made in house; host or cells: V79-4 cell line #305 (stably selected with geneticin and hygromycin); sonicated homogenate, 500 x g supernatant
T1 sequence (P30099 35-510): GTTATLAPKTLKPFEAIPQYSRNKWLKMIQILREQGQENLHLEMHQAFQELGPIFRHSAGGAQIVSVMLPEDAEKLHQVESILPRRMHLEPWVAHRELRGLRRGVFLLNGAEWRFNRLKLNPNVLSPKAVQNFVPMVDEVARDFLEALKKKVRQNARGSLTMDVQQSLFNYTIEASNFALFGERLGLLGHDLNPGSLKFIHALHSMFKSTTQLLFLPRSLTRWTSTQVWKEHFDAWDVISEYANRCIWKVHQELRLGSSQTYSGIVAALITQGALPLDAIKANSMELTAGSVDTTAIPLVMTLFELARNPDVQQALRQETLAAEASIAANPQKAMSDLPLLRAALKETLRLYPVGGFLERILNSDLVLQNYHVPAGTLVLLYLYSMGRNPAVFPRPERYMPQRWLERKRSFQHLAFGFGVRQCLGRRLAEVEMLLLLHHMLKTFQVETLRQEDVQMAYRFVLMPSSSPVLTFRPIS
Method: (§1) Following 2 days of growth, cells are washed once with PBS, scraped and collected in PBS, and centrifuged at 1,300 rpm for 6 min. […] The sonication procedure is repeated 3 more times, with a 5 min incubation on ice between sonications. The sonicated material is then spun at 500×g for 4 min to remove unbroken cells. The supernatant is brought to a final glycerol concentration of 5%, flash-frozen in liquid nitrogen, and stored at −80° C.
The CYP11B2 assay is performed in 96-well U-bottom non-tissue-culture-treated plates. […] Plates are then centrifuged at 2,400 rpm for 6 min, and 100 μl of supernatant is removed for measurement of aldosterone content by scintillation proximity assay (SPA).
(§2) Measurement of aldosterone is performed using a 96-well plate format. […] Anti-mouse PVT SPA beads (50 μl) are then added to each well and incubated for 4 hr at room temperature prior to counting in a Microbeta plate counter. The amount of aldosterone in each sample is calculated by comparing with a standard curve generated using known quantities of the hormone.
Full concentration-response curves of an inhibitor are performed at least 3 times. The IC50 values are derived using a non-linear least squares curve-fitting program from DBS XLfit.

Rat CYP11B1 = molecular target: T2, Rat CYP11B1 (Rattus norvegicus, UniProt P15393); assay: In vitro rat CYP11B1 assay; format: biochemical; conditions: V79-4 cell homogenate, 11-deoxycorticosterone to corticosterone, SPA
T2 construct: made in house; host or cells: V79-4 cell line #259 (stably selected with geneticin and hygromycin); sonicated homogenate, 500 x g supernatant
T2 sequence (P15393 25-499): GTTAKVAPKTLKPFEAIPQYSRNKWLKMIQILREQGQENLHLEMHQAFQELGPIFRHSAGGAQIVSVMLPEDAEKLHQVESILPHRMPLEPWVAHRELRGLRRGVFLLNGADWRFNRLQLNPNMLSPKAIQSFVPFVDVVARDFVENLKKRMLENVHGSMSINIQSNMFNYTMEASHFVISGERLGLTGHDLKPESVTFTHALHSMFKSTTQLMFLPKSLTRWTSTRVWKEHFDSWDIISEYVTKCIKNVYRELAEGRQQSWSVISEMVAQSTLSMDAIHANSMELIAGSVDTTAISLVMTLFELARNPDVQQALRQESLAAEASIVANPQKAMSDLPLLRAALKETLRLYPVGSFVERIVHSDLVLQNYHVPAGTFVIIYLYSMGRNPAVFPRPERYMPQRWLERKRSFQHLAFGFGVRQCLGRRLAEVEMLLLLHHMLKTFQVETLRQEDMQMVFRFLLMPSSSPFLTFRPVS
Source text: Complete EDTA-free protease inhibitor tablets were obtained from Roche Applied Science (Indianapolis, Ind.). Dulbecco's modified Eagle medium (DMEM), antibiotic, geneticin, hygromycin, and fetal bovine serum (FBS) were products of Invitrogen (Carlsbad, Calif.). NADPH Regeneration Solution A and Solution B were purchased from BD Biosciences Clontech (Palo Alto, Calif.). Anti-sheep PVT SPA beads and [1,2,6,7-^3H(N)]corticosterone were acquired from Amersham (Piscataway, N.J.) and PerkinElmer (Boston, Mass.), respectively.
as §1, with “For enzyme preparation, #259 cells were seeded in 150 mm dishes in double-selection medium. Following” for “Following”, “were” for “are”, “was” for “is”, “rest” for “incubation”
The CYP11B1 assays were performed in 96-well U-bottom non-tissue-culture-treated plates. […] Plates were then centrifuged at 2,400 rpm for 6 min, and 50 μl of supernatant was removed for measurement of corticosterone content by scintillation proximity assay (SPA).
as §2, with “corticosterone was” for “aldosterone is”, “Anti-sheep” for “Anti-mouse”, “were” for “are”, “overnight” for “for 4 hr”, “corticosterone” for “aldosterone”, “was” for “is”
Full concentration-response curves of an inhibitor were performed at least 3 times. The IC50 values were derived using a non-linear least squares curve-fitting program from IDBS XLfit.

IC50 (Rat CYP11B2) [nM]	IC50 (Rat CYP11B1) [nM]	Compound
1	0.3	N#Cc1ccc(C2CCCCc3cncn32)c(-c2ccc(F)cc2)c1 (single isomer, unassigned) [4′-fluoro-6-(6,7,8,9-tetrahydro-5H-imidazo[1,5-a]azepin-5-yl)biphenyl-3-carbonitrile]
5	2	COc1ccc(CN(C)C(=O)C2(c3ccc(C#N)cc3Cl)CCc3cncn32)cc1 (stereo not drawn) [5-(2-chloro-4-cyanophenyl)-N-(4-methoxybenzyl)-N-methyl-6,7-dihydro-5H-pyrrolo[1,2-c]imidazole-5-carboxamide]
1	1	N#Cc1ccc(C2CCCCc3cncn32)c(Br)c1 (racemic) [3-bromo-4-(6,7,8,9-tetrahydro-5H-imidazo[1,5-a]azepin-5-yl)benzonitrile racemate, 3-bromo-4-(6,7,8,9-tetrahydro-5H-imidazo[1,5-a]azepin-5-yl)benzonitrile]

From US8609862B2, “Use of an adrenal hormone-modifying agent” (Novartis AG, priority 2010, dated 2013)
